What follows are compounds tested against T1, Human MrgprX2 (Homo sapiens, UniProt Q96LB1) (assay: Human MrgprX2 antagonist FLIPR intracellular calcium mobilization assay). Conditions: antagonist activity, recombinant hMrgpMRGPRX2 expressing cells, read-out: Human MrgprX2 Antagonist pIC50 (converted).
T1 construct: expressed in transfected cells
T1 sequence (Q96LB1 1-330): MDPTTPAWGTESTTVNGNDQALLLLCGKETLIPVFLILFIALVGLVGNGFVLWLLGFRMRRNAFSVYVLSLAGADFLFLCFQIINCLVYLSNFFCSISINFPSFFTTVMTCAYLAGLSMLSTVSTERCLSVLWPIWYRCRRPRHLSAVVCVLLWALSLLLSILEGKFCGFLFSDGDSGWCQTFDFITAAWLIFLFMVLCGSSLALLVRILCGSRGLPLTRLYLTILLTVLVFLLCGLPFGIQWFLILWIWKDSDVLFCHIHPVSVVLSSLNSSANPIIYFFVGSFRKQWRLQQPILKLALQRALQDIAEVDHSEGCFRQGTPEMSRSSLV
Format: cell-based
Source text: Potent and selective hMrgpMRGPRX2 compounds have been generated from compounds identified during a high throughput screening (HTS) campaign and followed up with cycles of structure activity based medicinal chemistry efforts. These compounds were characterized in recombinant hMrgpMRGPRX2 expressing cells for their antagonist activity and the potency was confirmed in the human mast cell line LAD-2, where the target is endogenously expressed. The assays used to determine potencies are functional read-out looking at intracellular calcium mobilization using the FLIPR™ technology. In these FLIPR assays, we test the identified compounds using recombinant cellular systems expressing mouse MrgprB2, mouse MrgprA1, gerbil MrgpMRGPRX2 orthologue, Chinese hamster MrgpMRGPRX2 orthologue and cynomolgus monkey MrgpMRGPRX2 orthologue, respectively for orthologue activity.

Structure (SMILES) | IC50
CC1(C(=O)Nc2ncc(Cc3ccccc3F)s2)CCOCC1 [Compound E004] | 398 nM
N#Cc1cc(F)cc(Oc2cnc(NC(=O)[C@H]3CCCN3S(N)(=O)=O)s2)c1 [Compound E090, (2R)—N-[5-(3-cyano-5-fluoro-phenoxy)thiazol-2-yl]-1-sulfamoyl-pyrrolidine-2-carboxamide] | 31.6 nM
C[C@]1(C(=O)Nc2ncc(Cc3cc(F)cc(F)c3)s2)CCOC1 (single isomer, unassigned) [Compound E053, N-[5-[(3,5-difluorophenyl)methyl]thiazol-2-yl]-3-methyl-tetrahydrofuran-3-carboxamide] | 7.94 nM
CCN(CC(C)O)C(=O)Nc1ncc(Cc2cccc(F)c2)s1 (stereo not shown) [Compound E110] | 0.501 nM
CC1(C(=O)Nc2ncc(Cc3cccc(F)c3)s2)CCOCC1 [Compound E007] | 100 nM
CN(CCO)C(=O)Nc1ncc(Cc2cccc(F)c2)s1 [Compound E132] | 2510 nM
O=C(Nc1ncc(Cc2cccc(F)c2)s1)N1CC[C@H](CO)C1 [Compound E112] | 794 nM
O=C(Nc1ncc(Cc2cccc(F)c2)s1)N1CCC[C@H]1CO [Compound E120] | 398 nM
COC(C)(C)C(=O)Nc1ncc(Cc2ccccc2F)s1 [Compound E019] | 251 nM
CC1(C(=O)Nc2ncc(Cc3cc(F)ccc3F)s2)COC1 [Compound E096] | 50.1 nM
CN(CC(O)CO)C(=O)Nc1ncc(Cc2cccc(F)c2)s1 (stereo not shown) [Compound E106] | 3160 nM
CC(O)CN(C(=O)Nc1ncc(Cc2cccc(F)c2)s1)C1CC1 (stereo not shown) [Compound E114] | 794 nM
CC(C)NC(=O)c1ncc(Cc2cccc(F)c2)s1 [Compound E217, 5-[(3-fluorophenyl)methyl]-N-isopropyl-thiazole-2-carboxamide] | 2000 nM
CC(C)C(=O)Nc1csc(C(=O)NCc2ccccc2)c1 [Compound E223, N-benzyl-4-(2-methylpropanoylamino)thiophene-2-carboxamide] | 7940 nM
CCN(C[C@H](C)O)C(=O)Nc1ncc(Oc2cc(C)cc(C#N)c2)s1 [Compound E206] | 6.31 nM
CN(C[C@@H](O)C(F)(F)F)C(=O)Nc1ncc(Cc2cccc(F)c2)s1 [Compound E111] | 3.16 nM
NS(=O)(=O)N1CCCC[C@@H]1C(=O)Nc1ncc(Cc2cccc(F)c2)s1 [Compound E066] | 31.6 nM
NS(=O)(=O)N1CCC[C@H]1C(=O)Nc1ncc(Cc2cccc(F)c2)s1 [Compound E062] | 3980 nM
C[C@]1(C(=O)Nc2ncc(Cc3cccc(Cl)c3)s2)CCOC1 (single isomer, unassigned) [Compound E051, N-[5-[(3-chlorophenyl)methyl]thiazol-2-yl]-3-methyl-tetrahydrofuran-3-carboxamide] | 100 nM
CN(CC(=O)Nc1ncc(Cc2cccc(F)c2)s1)S(N)(=O)=O [Compound E067] | 10000 nM

Structure (SMILES) | IC50
O=C(Nc1ncc(Cc2cccc(F)c2)s1)N1CCC1CO (stereo not shown) [Compound E126] | 631 nM
O=C(Nc1ncc(Cc2cccc(F)c2)s1)N1CCC[C@@H]1CO [Compound E121] | 39.8 nM
CC[C@H](C(=O)Nc1ncc(Cc2cccc(F)c2)s1)N(C)S(N)(=O)=O [Compound E069] | 1580 nM
CCN(C[C@H](C)O)C(=O)Nc1ncc(Cc2cccc(F)c2)s1 [Compound E117] | 0.631 nM
O=C(Nc1ncc(Cc2cccc(F)c2)s1)C1(O)CC1 [Compound E026] | 2510 nM
CN(CC(C)(C)O)C(=O)Nc1ncc(Cc2cccc(F)c2)s1 [Compound E108] | 1.58 nM
C[C@H](O)CN(C)C(=O)Nc1ncc(Cc2cc(F)cc(F)c2)s1 [Compound E134] | 1.58 nM
CC1(C(=O)Nc2ncc(Cc3ccccc3F)s2)CCOC1 (stereo not shown) [Compound E014] | 631 nM
CC1(C(=O)Nc2ncc(Cc3ccccc3F)s2)COC1 [Compound E016] | 3980 nM
CC(C)(C#N)C(=O)Nc1ncc(Cc2cccc(Cl)c2)s1 [Compound E034] | 158 nM
CC(C)(C(=O)Nc1ncc(Cc2ccc(F)cc2)s1)N1CCOCC1 [Compound E006] | 126 nM
CCN(C[C@H](C)O)C(=O)Nc1ncc(Cc2cc(F)cc(C#N)c2)s1 [Compound E146] | 39.8 nM
COc1ccc(F)cc1Cc1cnc(NC(=O)N(C)C[C@H](C)O)s1 [Compound E143] | 398 nM
CCN(C[C@H](C)O)C(=O)Nc1nc2ccccc2s1 [Compound E129] | 1000 nM
C[C@H](O)CN(C)C(=O)Nc1ncc(Cc2cc(F)ccc2F)s1 [Compound E136] | 3.98 nM
CC1(C(=O)Nc2ncc(Cc3cccc(Cl)c3)s2)COC1 [Compound E036] | 316 nM
CC(C)(CO)C(=O)Nc1ncc(Cc2ccccc2F)s1 [Compound E010] | 1260 nM
CC(C)NC(=O)c1nc(F)c(Cc2ccc(F)cc2)s1 [Compound E220, 4-fluoro-5-[(4-fluorophenyl)methyl]-N-isopropyl-thiazole-2-carboxamide] | 6310 nM
CC(F)(F)C(=O)Nc1ncc(Cc2ccccc2F)s1 [Compound E022] | 5010 nM
C[C@H](O)CN(C)C(=O)Nc1ncc(Oc2cncc(C(F)(F)F)c2)s1 [Compound E179] | 3980 nM

Results, then the compound that gave them:

IC50 | Structure (SMILES)
10 nM | CC(C)C(=O)Nc1ncc(Oc2ccc(F)cc2)s1 [Compound E074]
3160 nM | CCN1CCC[C@@H]1C(=O)Nc1ncc(Oc2ccc(C#N)cc2)s1 [Compound E088, (2R)—N-[5-(4-cyanophenoxy)thiazol-2-yl]-1-ethyl-pyrrolidine-2-carboxamide]
1.58 nM | C[C@@H](O)CN(C)C(=O)Nc1ncc(Oc2cccc(F)c2)s1 [Compound E150]
20 nM | C[C@H](O)CN(C)C(=O)Nc1ncc(Oc2cccc(C(F)(F)F)c2)s1 [Compound E182]
1.26 nM | CCN(C[C@H](C)O)C(=O)Nc1ncc(Oc2cncc(F)c2)s1 [Compound E158]
7940 nM | CC(C)C(=O)Nc1ncc(Cc2cccc(C(F)(F)F)c2)s1 [Compound E002]
1580 nM | N#Cc1ccc(Oc2cnc(NC(=O)[C@H]3CCCN3S(N)(=O)=O)s2)cc1 [Compound E091, (2R)—N-[5-(4-cyanophenoxy)thiazol-2-yl]-1-sulfamoyl-pyrrolidine-2-carboxamide]
2510 nM | CN1CCC[C@@H]1C(=O)Nc1ncc(Oc2ccc(C#N)cc2)s1 [Compound E087, (2R)—N-[5-(4-cyanophenoxy)thiazol-2-yl]-1-methyl-pyrrolidine-2-carboxamide]
1260 nM | C[C@@H](O)CN(C)C(=O)Nc1ncc(Cc2ccccc2F)s1 [Compound E103]
31.6 nM | CCN(CCO)C(=O)Nc1ncc(Oc2ccc(F)cc2)s1 [Compound E186]
200 nM | C[C@H](O)CN(C)C(=O)Nc1ncc(Cc2ccc(F)cc2)s1 [Compound E130]
0.631 nM | CCN(C[C@H](C)O)C(=O)Nc1ncc(Oc2ccccc2)s1 [Compound E155]
2 nM | C[C@H](O)CN(C)C(=O)Nc1ncc(Oc2ccc(F)cc2)s1 [Compound E151]
1.26 nM | CC(C)C(=O)Nc1ncc(Oc2cccc(F)c2)s1 [Compound E076]
3.98 nM | C[C@H](O)CN(C)C(=O)Nc1ncc(Oc2ccccc2F)s1 [Compound E168]
3160 nM | C[C@H](O)CN(C)C(=O)Nc1ncc(Oc2ccc(F)cc2C#N)s1 [Compound E192]
794 nM | CCN(C[C@H](C)O)C(=O)Nc1ncc(Oc2ccc(F)cc2C#N)s1 [Compound E191]

IC50 | Structure (SMILES)
398 nM | CCN(C[C@@H](C)O)C(=O)Nc1ncc(Oc2ccc(C#N)cc2)s1 [Compound E211]
398 nM | C[C@H](O)CN(C)C(=O)Nc1ncc(Oc2ccc(C#N)cc2F)s1 [Compound E189]
1.26 nM | C[C@H](O)CN(C)C(=O)Nc1ncc(Oc2cc(F)cc(C#N)c2)s1 [Compound E187]
100 nM | CCN(C[C@H](C)O)C(=O)Nc1ncc(Oc2cccnc2F)s1 [Compound E203]
3.16 nM | CCN(C[C@H](C)O)C(=O)Nc1ncc(Oc2cccc(C(F)(F)F)c2)s1 [Compound E183]
200 nM | CCN(C[C@H](C)O)C(=O)Nc1ncc(Oc2ccc(Cl)nc2)s1 [Compound E202]
10 nM | C[C@H](O)CN(C)C(=O)Nc1ncc(Oc2cccc(C#N)c2)s1 [Compound E159]
3.16 nM | C[C@H](O)CN(C)C(=O)Nc1ncc(Oc2ccc(C#N)c(F)c2)s1 [Compound E164]
6310 nM | CC(C)C(=O)Nc1ncc(Oc2cccnc2)s1 [Compound E071]
2.51 nM | CC1(C(=O)Nc2ncc(Oc3cccc(F)c3)s2)CCOC1 (stereo not shown) [Compound E078, N-[5-(3-fluorophenoxy)thiazol-2-yl]-3-methyl-tetrahydrofuran-3-carboxamide]
39.8 nM | CC1(C(=O)Nc2ncc(Oc3ccc(F)cc3)s2)CCOCC1 [Compound E077]
251 nM | C[C@H](O)CN(C)C(=O)Nc1ncc(Cc2ccccc2F)s1 [Compound E102]
20 nM | C[C@H](O)CN(C)C(=O)Nc1ncc(Oc2ccc(F)c(C#N)c2)s1 [Compound E165]
31.6 nM | CCN(C[C@H](C)O)C(=O)Nc1ncc(Oc2cncc(C)c2)s1 [Compound E178]
0.794 nM | CCN(C[C@H](C)O)C(=O)Nc1ncc(Oc2ccccc2F)s1 [Compound E171]
3160 nM | CCN(C[C@H](C)O)C(=O)Nc1ncc(Oc2ccc(C(=O)OC)cc2)s1 [Compound E214]
